For data set [1], the system named is DNA metabolism. The data set can be described thus: Mode of action studies: macromolecular biosynthesis assays (incorporation of radiolabeled precursors). The data set is classed as cell-based. Particulars: FIG. 1; initial mode of action studies. As for the experimental part:
Mode of action studies. Macromolecular biosynthesis assays were performed to identify the microbial cellular processes selectively affected by antibiotic compounds. Exponentially growing bacteria in MHB were washed and diluted in a complete synthetic medium to an optical density of 0.2 (at 600 nm). Cells were then distributed in 96-well plates containing serially diluted antibiotic compounds and radiolabeled precursors. The radiolabeled precursors were D-[^3H]-alanine for peptidoglycan synthesis, [^3H]-thymidine for DNA synthesis, [^3H]-uridine for RNA synthesis and [^3H]-leucine for protein synthesis. Incorporation was allowed for 30 minutes at 35° C. before macromolecules were precipitated for 1 hour on ice in the presence of 10% trichloroacetic acid. The radioactive precipitates were then collected onto GC filters and the radioactivity measured by liquid scintillation counting. Data were expressed as the percentage of radioactivity incorporated compared to control cells grown in the absence of antibiotic compound.

The test system of data set [2] is E. coli ATCC 25922. The data set can be described thus: MIC determination by broth microdilution, E. coli. The data set is classed as cell-based, Escherichia coli. How it is done: (§1) Bacteria. Susceptibility tests were performed against several bacterial species following the recommendations from the National Committee for […] (NCCLS). The MICs were determined by a broth microdilution technique using a final volume of 100 μl of cation-adjusted Mueller Hinton Broth (MHBCA) and a bacterial inoculum of 10^5-10^6 Colony Forming Units (CFU)/ml. The inocula were verified and precisely determined by applying 10 μl drops of 10 fold dilutions onto Triptic Soy Agar plates. The CFU were counted after an incubation of 24 h at 35° C. Any experiment showing an inoculum that was more or less than 10^5-10^6 CFU/ml was rejected. Control antibiotics and test compounds were prepared at a concentration equivalent to 2 fold the highest desired final concentration. Compounds were then diluted directly in the 96-well microtiter plates by serial 2-fold dilutions using a multichannel pipette. Microtiter plates were incubated for 24 h at 35° C. and growth was recorded by using a microtiter plate reader at 650 nm as well as by visual observation. The MIC was defined as the lowest concentration of compound yielding no visible growth. At least two commercial antibiotics (e.g., imipenem and vancomycin) were always included as internal microtiter plate controls in each MIC assay.

The test system of data set [3] is S. aureus strain Newman. The data set can be described thus: In vivo efficacy: S. aureus model of systemic infection in the mouse. The settings on record: for antimicrobial activity in vivo (viable bacteria in the kidneys): S. aureus systemic infection, administrated by gavage 1 hour post-infection, kidneys 5 hours after inoculation. How it is done: In vivo efficacy. The antimicrobial activity of compounds was also evaluated in a S. aureus model of systemic infection in the mouse. To produce the systemic infection, CD-1 female mice (20 g) were injected intra-peritoneally with 10^7 CFU of S. aureus strain Newman suspended in 0.5 ml of endotoxin-free PBS containing 5% mucin (w/v). The compounds were administrated at 1 hour post-infection and kidneys harvested and pooled, for each animal, 5 hours after bacterial inoculation. Tissues were homogenized in PBS and homogenates serially diluted and plated for CFU determination.

Data set [4] has as its system B. atrophaeus. The data set can be described thus: MIC determination, B. atrophaeus. Particulars: Bacillus atrophaeus. The format is cell-based. As for the experimental part: as §1
The test system of data set [5] is Branhamella (Moraxella) catarrhalis. The data set can be described thus: MIC determination, Branhamella (Moraxella) catarrhalis. The data set is classed as cell-based. How it is done: as §1
(§2) Fastidious bacteria. […]

In data set [6] the test system is MRSA strains. The data set can be described thus: MIC determination by broth microdilution, antibiotic multi-resistant MRSA strains. The data set is classed as cell-based, S. aureus. As for the experimental part:
as §1

For data set [7], the system named is Haemophilus influenzae. The data set can be described thus: MIC determination, Haemophilus influenzae. The format is cell-based. As for the experimental part:
as §1, §2

The subject of data set [8] is Methicillin-Sensitive S. aureus strains (MSSA). The data set can be described thus: MIC determination, Methicillin-Sensitive S. aureus. The format is cell-based. Particulars: Staphylococcus aureus. As for the experimental part:
as §1

Data set [9] deals with E. faecalis. The data set can be described thus: MIC determination, Enterococci. The data set is classed as cell-based. Particulars: Enterococcus faecalis. As for the experimental part: as §1
Data set [10] relates to Burkholderia cepacia. The data set can be described thus: MIC determination, Burkholderia cepacia. The format is cell-based. As for the experimental part:
as §1

The test system of data set [11] is B. cereus. The data set can be described thus: MIC determination, B. cereus. The data set is classed as cell-based. The settings on record: Bacillus cereus. How it is done:
as §1

The subject of data set [12] is Yersinia enterocolytica. The data set can be described thus: MIC determination, Yersinia enterocolytica. The data set is classed as cell-based. How it is done: as §1
Data set [13] relates to bacterial genus Mycobacterium. The data set can be described thus: MIC determination, Mycobacterium. The format is cell-based, Mycobacterium smegmatis. How it is done: as §1, §2
Data set [14] concerns B. subtilis. The data set can be described thus: MIC determination, B. subtilis. Particulars: Bacillus subtilis. The format is cell-based. As for the experimental part:
as §1

In data set [15] the test system is anaerobic bacteria. The data set can be described thus: MIC determination, anaerobic bacteria. The settings on record: Bacteroides fragilis. The data set is classed as cell-based. How it is done: as §1, §2
The mark [16] stands for this setting: Escherichia coli, ATCC25922, E. coli ATCC 25922, read-out: MIC.

In brackets after ≈: the same amount, converted by molar mass. Where two headings read alike, the source gives them in different places. Bounds are passed on as bounds.

Regarding `O=[N+]([O-])c1ccc(C=Cc2nc(Nc3ccc(O)c(O)c3)c3ccccc3n2)o1` [Example 1, Compound VI, 2-[2-(5-nitro-2-furyl)vinyl]-4-(3,4-dihydroxyanilino)quinazoline], in [1], the “mode of action (cellular process affected, incorporation of radiolabeled precursors into macromolecules)” value is recorded as “inhibition of DNA metabolism”. For the same compound, in data set [2] (setting [16]), the MIC stood at 0.5 µg/mL (≈ 1.28 µM). For the same compound, in data set [3] (S. aureus systemic infection model), the toxicity in vivo result is on record as “relatively low toxicity”. The “antimicrobial activity in vivo (viable bacteria in the kidneys)” value in data set [3] (listed as 2-[2-(5-nitro-2-furyl)vinyl]-4-(3,4-dihydroxyanilino)-quinazoline) is listed as “active in vivo”; in [3] (listed as Example 1 compound VI), “reduced the presence of viable bacteria in the kidneys”.
As to `CN1CCN(c2cc3nc(/C=C/c4ccc([N+](=O)[O-])o4)nc(Nc4ccc(O)c(O)c4)c3cc2F)CC1` [Example VIII compound “q”], the MIC in [4] was 8 µg/mL (≈ 15.8 µM); in [5] it was 1 µg/mL (≈ 1.97 µM); in data set [6] (Staphylococcus aureus, MRSA, MRSA strain Sa211c, read-out: MIC), 8 µg/mL (≈ 15.8 µM); in [6] (Staphylococcus aureus, MRSA, MRSA strain Sa212c, read-out: MIC), 8 µg/mL (≈ 15.8 µM); in [6] (Staphylococcus aureus, MRSA, MRSA strain Sa220c, read-out: MIC) it was 4 µg/mL (≈ 7.9 µM); in data set [6] (Staphylococcus aureus, MRSA, MRSA strain Sa224c, read-out: MIC) it was 8 µg/mL (≈ 15.8 µM). Moreover, the MIC in data set [6] (Staphylococcus aureus, MRSA, MRSA strain Sa228c, read-out: MIC) is 8 µg/mL (≈ 15.8 µM); in data set [6] (Staphylococcus aureus, MRSA, MRSA strain Sa234c, read-out: MIC) it was 8 µg/mL (≈ 15.8 µM); in data set [6] (Staphylococcus aureus, MRSA, MRSA strain Sa248c, read-out: MIC), 8 µg/mL (≈ 15.8 µM); in data set [6] (Staphylococcus aureus, MRSA, MRSA strain Sa249c, read-out: MIC) it was 8 µg/mL (≈ 15.8 µM); in [6] (Staphylococcus aureus, MRSA, MRSA strain Sa253c, read-out: MIC), 8 µg/mL (≈ 15.8 µM); in [6] (Staphylococcus aureus, MRSA, Methicillin-Resistant S. aureus strains (MRSA), read-out: MIC) it was 4 to 8 µg/mL (≈ 7.9 to 15.8 µM). In addition, the MIC in [7] is 1 µg/mL (≈ 1.97 µM); in data set [8], 4 to 8 µg/mL (≈ 7.9 to 15.8 µM); in data set [9] it was 8 µg/mL (≈ 15.8 µM); in data set [10] it was 8 µg/mL (≈ 15.8 µM); in data set [11], 8 µg/mL (≈ 15.8 µM); in [12] it was 8 µg/mL (≈ 15.8 µM). For the same compound, the MIC in data set [13], in data set [14] and in data set [15] was 8 µg/mL (≈ 15.8 µM) throughout.
As to `CCn1cc(C(=O)O)c(=O)c2cc(F)c(N3CCNCC3)cc21` [Norfloxacin], the MIC in data set [2] (setting [16]) was 0.03 to 0.06 µg/mL (≈ 0.0939 to 0.188 µM).
For `CN[C@H](CC(C)C)C(=O)N[C@H]1C(=O)N[C@@H](CC(N)=O)C(=O)N[C@H]2C(=O)N[C@H]3C(=O)N[C@H](C(=O)N[C@H](C(=O)O)c4cc(O)cc(O)c4-c4cc3ccc4O)[C@H](O)c3ccc(c(Cl)c3)Oc3cc2cc(c3O[C@@H]2O[C@H](CO)[C@@H](O)[C@H](O)[C@H]2O[C@H]2C[C@](C)(N)[C@H](O)[C@H](C)O2)Oc2ccc(cc2Cl)[C@H]1O` [Vancomycin], the MIC in data set [2] (Escherichia coli, ATCC25922) was above 64 µg/mL.
With Gentamicin [reference compound], the MIC in [6] (MRSA strain Sa211c) came out at 1 µg/mL; in [6] (MRSA strain Sa212c) it was 0.25 µg/mL; in data set [6] (MRSA strain Sa220c) it was 0.5 µg/mL; in data set [6] (MRSA strain Sa224c) it was 0.25 µg/mL; in data set [6] (MRSA strain Sa228c) it was 32 µg/mL; in data set [6] (MRSA strain Sa234c), 1 µg/mL. The compound further gave an MIC in data set [2] (E. coli ATCC 25922) of 0.5 to 2 µg/mL.

(Values after patent US20080188499A1, “Carbo- and Hetero-Cyclic Antibiotics and Use Thereof” (priority 2004, published 2008).)
